Source: BindingDB's records for doi:10.1021/bi701378g (Pfizer, 2007)

What was measured:
Settings in all cases: pH 7.4; 30 °C
[1] = biological target: T1, Fatty-acid amide hydrolase 1 (Homo sapiens, UniProt O00519); assay: FAAH Inhibition Assay (15 min Preincubation)
T1 sequence (O00519 whole entry): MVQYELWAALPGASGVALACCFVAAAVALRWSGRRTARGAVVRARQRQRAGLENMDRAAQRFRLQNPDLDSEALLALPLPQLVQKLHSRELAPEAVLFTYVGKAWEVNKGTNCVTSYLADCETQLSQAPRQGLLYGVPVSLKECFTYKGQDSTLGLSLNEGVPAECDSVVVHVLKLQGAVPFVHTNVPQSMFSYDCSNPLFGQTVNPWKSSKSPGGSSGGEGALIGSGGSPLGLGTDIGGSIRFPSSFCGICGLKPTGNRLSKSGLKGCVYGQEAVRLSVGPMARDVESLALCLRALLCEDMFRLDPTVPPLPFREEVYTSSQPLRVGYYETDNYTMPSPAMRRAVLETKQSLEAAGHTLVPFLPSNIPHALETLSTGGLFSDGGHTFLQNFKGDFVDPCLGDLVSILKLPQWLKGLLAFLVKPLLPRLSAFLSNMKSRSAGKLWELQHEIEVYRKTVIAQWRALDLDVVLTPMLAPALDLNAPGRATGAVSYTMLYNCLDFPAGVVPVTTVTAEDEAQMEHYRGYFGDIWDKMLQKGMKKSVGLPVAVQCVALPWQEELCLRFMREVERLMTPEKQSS
Procedure: (§1) FAAH activity was measured by following the production of ammonia generated from the hydrolysis of oleamide by FAAH. GDH catalyzes the condensation of ammonia and alpha-ketoglutarate to glutamate with a concomitant conversion of NADH to nicotinamide adenine dinucleotide, oxidized form (NAD+), which is spectrophotometrically measured at 340 nm. Test compounds were preincubated with FAAH at room temperature for 15 min. The reaction was initiated with the addition of substrate oleamide. The absorbance at 340 nm was collected over a period of 30 min with reading taken in 10-s intervals using a spectrophotometer.

[2] = biological target: T1, Fatty-acid amide hydrolase 1; assay: FAAH Inhibition Assay (5 min Preincubation)
Procedure: as §1, with “5” for “15”

[3] = biological target: T1, Fatty-acid amide hydrolase 1; assay: FAAH Inhibition Assay (30 min Preincubation)
Procedure: as §1, with “30” for “15”

[4] = biological target: T1, Fatty-acid amide hydrolase 1; assay: FAAH Inhibition Assay (60 min Preincubation)
Procedure: as §1, with “60” for “15”

IC50 [1]: 0.687 µM
IC50 [2]: 0.991 µM
IC50 [3]: 0.473 µM
IC50 [4]: 0.033 µM
SMILES: O=C(Nc1ccccc1)N1CCN(Cc2ccc3ccccc3n2)CC1 [N-phenyl-4-(quinolin-2-ylmethyl)piperazine-1-carboxamide]
